Reference: patent publication US11566007B2, “Ras inhibitors” (Revolution Medicines, Inc., priority 2019, dated 2023)
Like-named read-outs stand apart in the source and are kept apart here.

Tests used:
[1] = tested on: NCI-H358 (K-Ras G12C); assay: CellTiter-Glo cell viability assay, NCI-H358; format: cell-based, human; details: Homo sapiens, NCI-H358, 120 h
Summary of the method: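 Viability of K-Ras mutant lines is measured by ATP luminescence after five days of compound treatment. Percent of DMSO control is calculated and dose-response data are fitted with a four-parameter logistic equation.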

[2] = molecular target: KRAS G12S (Homo sapiens (Human), UniProt P01116+P62937, G12S); assay: Ras-Raf (BRAF RBD) disruption / FRET / MOA assay, KRAS G12S; format: biochemical; details: Ras-Raf disruption/FRET/MOA assay; class symbols; read-out: KRAS G12S FRET data IC50
Summary of the method: (§1)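 Compound-driven ternary complex of nucleotide-loaded Ras with cyclophilin A, disrupting BRAF RBD binding. 10-point 3-fold dilution from 30 μM final, 3 h at 25° C, then anti-His Eu-W1024 (10 nM) and anti-GST allophycocyanin (50 nM) for 1.5 h. IC50 from TR-FRET ratio decrease versus DMSO.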

[3] = molecular target: KRAS G12D (Homo sapiens (Human), UniProt P01116+P62937, G12D); assay: Ras-Raf (BRAF RBD) disruption / FRET / MOA assay, KRAS G12D; format: biochemical; details: Ras-Raf disruption/FRET/MOA assay; class symbols; read-out: KRAS G12D FRET data IC50
Summary of the method: as §1

[4] = molecular target: KRAS G12V (Homo sapiens (Human), UniProt P01116+P62937, G12V); assay: Ras-Raf (BRAF RBD) disruption / FRET / MOA assay, KRAS G12V; format: biochemical; details: read-out: IC50* KRAS G12V FRET data
Summary of the method: as §1

[5] = molecular target: KRAS WT (Homo sapiens (Human), UniProt P01116+P62937); assay: Ras-Raf (BRAF RBD) disruption / FRET / MOA assay, KRAS WT; format: biochemical; details: read-out: IC50* KRAS WT FRET data
Summary of the method: as §1

[6] = molecular target: KRAS G13D (Homo sapiens (Human), UniProt P01116+P62937, G13D); assay: Ras-Raf (BRAF RBD) disruption / FRET / MOA assay, KRAS G13D; format: biochemical
Summary of the method: as §1

[7] = molecular target: NRAS G12C (Homo sapiens (Human), UniProt P01111+P62937, G12C); assay: Ras-Raf (BRAF RBD) disruption / FRET / MOA assay, NRAS G12C; format: biochemical
Summary of the method: as §1

[8] = molecular target: NRAS Q61K (Homo sapiens (Human), UniProt P01111+P62937, Q61K); assay: Ras-Raf (BRAF RBD) disruption / FRET / MOA assay, NRAS Q61K; format: biochemical; details: NRAS Q61K; Ras-Raf disruption/FRET/MOA assay; read-out: IC50* NRAS Q61K FRET data
Summary of the method: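 Compounds (30 μM top final, 10-point 3-fold dilutions) incubated 3 h at 25° C with nucleotide-loaded Ras, cyclophilin A and BRAF RBD. Detection with 10 nM anti-His Eu-W1024 and 50 nM anti-GST allophycocyanin over another 1.5 h. Lowered TR-FRET ratio relative to DMSO wells gives IC50.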

[9] = NCI-H358, 5-day treatment, class symbols, read-out: Additional H358 Cell Viability assay data (K-Ras G12C, IC50)
[10] = read-out: IC50* KRAS G13D FRET data
[11] = read-out: IC50* NRAS G12C FRET data

Sequence of KRAS G12V (P01116-2 other isoform, or with tags, fused parts or gaps G12V): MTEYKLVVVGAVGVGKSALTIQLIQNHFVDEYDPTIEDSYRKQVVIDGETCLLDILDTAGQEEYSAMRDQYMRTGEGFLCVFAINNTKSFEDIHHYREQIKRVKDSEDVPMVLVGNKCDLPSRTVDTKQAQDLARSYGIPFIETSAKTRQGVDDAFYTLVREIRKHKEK
Sequence of KRAS G12V (P62937 whole entry): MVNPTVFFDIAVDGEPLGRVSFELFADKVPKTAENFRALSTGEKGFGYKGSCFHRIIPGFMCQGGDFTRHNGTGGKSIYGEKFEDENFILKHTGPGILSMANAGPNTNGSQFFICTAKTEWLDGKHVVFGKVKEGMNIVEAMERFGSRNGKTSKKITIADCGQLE
Sequence of KRAS G12D (P01116-2 other isoform, or with tags, fused parts or gaps G12D): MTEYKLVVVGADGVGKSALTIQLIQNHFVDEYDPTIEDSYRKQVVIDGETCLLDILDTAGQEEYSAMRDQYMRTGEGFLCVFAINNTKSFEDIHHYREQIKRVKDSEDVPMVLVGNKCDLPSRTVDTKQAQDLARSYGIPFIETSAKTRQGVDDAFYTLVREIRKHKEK
Sequence of KRAS G12D (P62937 whole entry): as the sequence (P62937 whole entry) above
Sequence of KRAS WT (P01116-2 other isoform, or with tags, fused parts or gaps): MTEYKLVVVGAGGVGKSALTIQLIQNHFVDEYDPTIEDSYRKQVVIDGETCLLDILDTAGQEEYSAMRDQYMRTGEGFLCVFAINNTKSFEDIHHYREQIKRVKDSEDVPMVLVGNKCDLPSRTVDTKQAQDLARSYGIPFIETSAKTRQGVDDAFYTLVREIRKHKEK
Sequence of KRAS WT (P62937 whole entry): as the sequence (P62937 whole entry) above
Sequence of KRAS G13D (P01116-2 other isoform, or with tags, fused parts or gaps G13D): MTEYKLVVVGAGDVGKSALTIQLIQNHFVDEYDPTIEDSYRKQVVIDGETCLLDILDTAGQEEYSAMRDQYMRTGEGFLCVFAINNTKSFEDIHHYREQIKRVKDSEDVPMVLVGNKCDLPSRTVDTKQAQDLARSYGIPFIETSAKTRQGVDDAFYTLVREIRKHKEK
Sequence of KRAS G13D (P62937 whole entry): as the sequence (P62937 whole entry) above
Sequence of KRAS G12S (P01116-2 other isoform, or with tags, fused parts or gaps G12S): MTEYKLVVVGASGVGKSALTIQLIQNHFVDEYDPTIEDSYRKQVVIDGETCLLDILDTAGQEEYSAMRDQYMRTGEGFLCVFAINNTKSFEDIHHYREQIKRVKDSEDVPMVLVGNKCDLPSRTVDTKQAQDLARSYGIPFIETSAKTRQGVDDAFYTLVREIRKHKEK
Sequence of KRAS G12S (P62937 whole entry): as the sequence (P62937 whole entry) above
Sequence of NRAS G12C (P01111 whole entry G12C): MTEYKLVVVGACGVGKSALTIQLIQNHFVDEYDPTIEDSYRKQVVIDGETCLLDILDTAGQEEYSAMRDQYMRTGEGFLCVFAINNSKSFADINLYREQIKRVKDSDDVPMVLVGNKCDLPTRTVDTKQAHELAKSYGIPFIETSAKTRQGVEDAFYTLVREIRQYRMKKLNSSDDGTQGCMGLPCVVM
Sequence of NRAS G12C (P62937 whole entry): as the sequence (P62937 whole entry) above
Sequence of NRAS Q61K (P01111 whole entry Q61K): as the sequence (P01111 whole entry G12C) above, with C12G, Q61K counted along it
Sequence of NRAS Q61K (P62937 whole entry): as the sequence (P62937 whole entry) above

SMILES	IC50 [1, 9] [µM]	IC50 [2] [nM]	IC50 [3] [nM]	IC50 [4] [nM]	IC50 [5] [nM]	IC50 [6, 10] [nM]	IC50 [7, 11] [nM]	IC50 [8] [nM]	IC50 ([1]; read-out: H358 Cell Viability (K-Ras G12C) IC50, uM, NCI-H358, 5-day treatment) [µM]	IC50 ([1]; read-out: Additional H358 Cell Viability assay data (K-Ras G12C, IC50, uM), NCI-H358, 5-day treatment, class symbols) [µM]	IC50 ([6]; IC50* KRAS G13D FRET data) [nM]	IC50 ([7]; IC50* NRAS G12C FRET data) [nM]
C=CC(=O)N1CC(OC[C@H](C(=O)N[C@H]2C[C@H]3CN(CCO3)c3ccc4c(c3)c(c(-c3cccnc3[C@H](C)OC)n4CC(F)(F)F)CC(C)(C)COC(=O)[C@@H]3CCCN(N3)C2=O)C(C)C)C1 (atropisomer, axis not shown) [Example A723]	0.01 to 0.1	1000 to 10000	> 10000	1000 to 10000	1000 to 10000	> 10000	100 to 1000	> 10000	–	–	–	–
CCn1c(-c2cccnc2[C@H](C)OC)c2c3cc(ccc31)-c1csc(n1)C[C@H](NC(=O)[C@H](C(C)C)N(C)C(=O)N(C)C1CN(C(=O)/C=C/[C@H]3CCCN3C)C1)C(=O)N1CCC[C@H](N1)C(=O)OCC(C)(C)C2 (atropisomer, axis not shown) [Example A729]	0.1 to 1	100 to 1000	1000 to 10000	1000 to 10000	100 to 1000	100 to 1000	100 to 1000	100 to 1000	–	–	–	–
CCn1c(-c2cccnc2[C@H](C)OC)c2c3cc(ccc31)-c1csc(n1)C[C@H](NC(=O)[C@H](C(C)C)N(C)C(=O)N(C)C1CN(C(=O)/C=C/[C@@H]3CCCN3C)C1)C(=O)N1CCC[C@H](N1)C(=O)OCC(C)(C)C2 (atropisomer, axis not shown) [Example A730]	0.01 to 0.1	100 to 1000	1000 to 10000	1000 to 10000	100 to 1000	100 to 1000	10 to 100	100 to 1000	–	–	–	–
CC#CC(=O)N1CC(N(C)C(=O)N(C)[C@H](C(=O)N[C@H]2Cc3nc(cs3)-c3ccc4c(c3)c(c(-c3cccnc3[C@H](C)OC)n4CC)CC(C)(C)COC(=O)[C@@H]3CCCN(N3)C2=O)C(C)C)C1 (atropisomer, axis not shown) [Example A731]	0.1 to 1	100 to 1000	1000 to 10000	1000 to 10000	100 to 1000	1000 to 10000	100 to 1000	100 to 1000	–	–	–	–
C=C(F)C(=O)N1CC(N(C)C(=O)N(C)[C@H](C(=O)N[C@H]2Cc3nc(cs3)-c3ccc4c(c3)c(c(-c3cccnc3[C@H](C)OC)n4CC)CC(C)(C)COC(=O)[C@@H]3CCCN(N3)C2=O)C(C)C)C1 (atropisomer, axis not shown) [Example A732]	0.01 to 0.1	100 to 1000	1000 to 10000	1000 to 10000	100 to 1000	1000 to 10000	100 to 1000	100 to 1000	–	–	–	–
C=CC(=O)N1CCN(C(=O)N(C)[C@H](C(=O)N[C@H]2Cc3nc(cs3)-c3ccc4c(c3)c(c(-c3cccnc3[C@H](C)OC)n4CC)CC(C)(C)COC(=O)[C@@H]3CCCN(N3)C2=O)C(C)C)[C@H]2C[C@H]21 (atropisomer, axis not shown) [Example A737]	0.01 to 0.1	100 to 1000	100 to 1000	100 to 1000	10 to 100	100 to 1000	10 to 100	10 to 100	–	–	–	–
C=CS(=O)(=O)N1CCC(C(=O)N(C)[C@H](C(=O)N[C@H]2Cc3nc(cs3)-c3ccc4c(c3)c(c(-c3cncnc3)n4CC)CC(C)(C)COC(=O)[C@@H]3CCCN(N3)C2=O)C(C)C)C1 (single isomer, unassigned) [Example A170]	0.1 to 1	> 10000	> 10000	> 10000	> 10000	> 10000	1000 to 10000	> 10000	–	–	–	–
C=CS(=O)(=O)N1CCC(C(=O)N(C)[C@H](C(=O)N[C@H]2Cc3cccc(c3)-c3ccc4c(c3)c(c(-c3cncnc3)n4CC)CC(C)(C)COC(=O)[C@@H]3CCCN(N3)C2=O)C(C)C)C1 (single isomer, unassigned) [Example A171]	0.1 to 1	> 10000	> 10000	> 10000	> 10000	> 10000	1000 to 10000	> 10000	–	–	–	–
C=CC(=O)N1CC[C@H](C(=O)N(C)[C@H](C(=O)N[C@H]2Cc3cc(ccn3)-c3ccc4c(c3)c(c(-c3cccnc3COC)n4CC)CC(C)(C)COC(=O)[C@@H]3CCCN(N3)C2=O)C(C)C)C1 [Example A136]	> 1	> 10000	> 10000	> 10000	> 10000	> 10000	1000 to 10000	> 10000	–	–	–	–
C=CC(=O)N1CC[C@H](C(=O)N(C)[C@H](C(=O)N[C@H]2Cc3cc(O)cc(c3)-c3ccc4c(c3)c(c(-c3cncs3)n4CC)CC(C)(C)COC(=O)[C@@H]3CCCN(N3)C2=O)C(C)C)C1 [Example A143]	0.01 to 0.1	1000 to 10000	> 10000	1000 to 10000	> 10000	> 10000	100 to 1000	1000 to 10000	–	–	–	–
C=CC(=O)N1CC[C@H](C(=O)N(C)[C@H](C(=O)N[C@H]2Cc3cc(O)cc(c3)-c3ccc4c(c3)c(c(-c3cccc(=O)n3C(C)C)n4CC)CC(C)(C)COC(=O)[C@@H]3CCCN(N3)C2=O)C(C)C)C1 [Example A151]	0.1 to 1	1000 to 10000	> 10000	1000 to 10000	> 10000	> 10000	100 to 1000	1000 to 10000	–	–	–	–
C=CC(=O)N1CC[C@H](C(=O)N(C)[C@H](C(=O)N[C@H]2Cc3cc(O)cc(c3)-c3ccc4c(c3)c(c(-c3cccnc3)n4[C@H](C)C#N)CC(C)(C)COC(=O)[C@@H]3CCCN(N3)C2=O)C(C)C)C1 [Example A193]	–	100 to 1000	> 10000	100 to 1000	1000 to 10000	1000 to 10000	100 to 1000	1000 to 10000	0.054	–	–	–
C=CC(=O)N1CC[C@H](C(=O)N(C)[C@H](C(=O)N[C@H]2Cc3cc(O)cc(c3)-c3ccc4c(c3)c(c(-c3c(C)cccc3C)n4CC)CC(C)(C)COC(=O)[C@@H]3CCCN(N3)C2=O)C(C)C)C1 [Example A226]	0.1 to 1	1000 to 10000	> 10000	1000 to 10000	> 10000	> 10000	100 to 1000	> 10000	–	–	–	–
C=CC(=O)N1CC[C@H](C(=O)N(C)[C@H](C(=O)N[C@H]2Cc3cc(O)cc(c3)-c3ccc4c(c3)c(c(-c3cccc5c3COC5)n4CC)CC(C)(C)COC(=O)[C@@H]3CCCN(N3)C2=O)C(C)C)C1 [Example A227]	0.1 to 1	1000 to 10000	> 10000	1000 to 10000	1000 to 10000	> 10000	100 to 1000	1000 to 10000	–	–	–	–
C=CC(=O)N1CC[C@H](C(=O)N(C)[C@H](C(=O)N[C@H]2Cc3cc(O)cc(c3)-c3ccc4c(c3)c(c(-c3ncn(C)c3[C@H](C)OC)n4CC)CC(C)(C)COC(=O)[C@@H]3CCCN(N3)C2=O)C(C)C)C1 [Example A301]	–	1000 to 10000	> 10000	1000 to 10000	> 10000	–	–	> 10000	–	0.1 to 1	> 10000	100 to 1000
C=CC(=O)N1CC[C@H](C(=O)N(C)[C@H](C(=O)N[C@H]2Cc3cc(O)cc(c3)-c3ccc4c(c3)c(c(-c3cnc(N(C)C)s3)n4CC)CC(C)(C)COC(=O)[C@@H]3CCCN(N3)C2=O)C(C)C)C1 [Example A302]	0.01 to 0.1	1000 to 10000	> 10000	1000 to 10000	1000 to 10000	1000 to 10000	100 to 1000	> 10000	–	–	–	–
